Laboratory results as given in patent US12358915B2, “METTL3 inhibitory compounds” (STORM THERAPEUTICS LTD., priority 2019, dated 2025).

Target: T1, METTL3/14 (Homo sapiens, UniProt Q86U44)
T1 construct: The enzyme used was full-length his-tagged METTL3; His; made in house
Assay: METTL3/14 methyltransferase assay (METTL3_14 RFMS, RapidFire mass spectrometry);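 note: recombinant His-tagged METTL3 with FLAG-tagged METTL14 from baculovirus, SAH product quantified by mass spectrometry against isotope-labelled internal standards, 60 min at room temperature, scaled between no-RNA and DMSO-only wells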
Assay type: biochemical
Settings: 5 nM METTL3/14, 0.2 μM RNA substrate, 0.5 μM SAM; lower limit of the assay IC50=5 nM; Compounds 63-265; read-out: METTL3_14 RFMS IC50
Procedure: The enzyme used was full-length his-tagged METTL3 co-expressed with full length FLAG-tagged METTL14 in a baculovirus expression system. […] After termination, plates were sealed, centrifuged and stored at 4° C. until analysis. […] Mass Spectrometry Analysis RNA methyltransferase activity was measured label free using the RapidFireTM mass spectrometry (RF/MS) platform. Stopped and stable assay plates were analyzed on the Agilent RF300 integrated autosampler/solid-phase extraction (SPE) system coupled to an ABSciex 4000 mass spectrometer for the generation of the product S-adenosyl homocysteine (SAH) and normalized to the ratio of signal of the two internal product standards, respectively. Solvent A was water containing 0.1% (v/v) TCA. Solvent B was acetonitrile/0.1% ammonium acetate (8:2, v/v). More specifically, plates were centrifuged at 4350 rpm for 10 min, samples were aspirated under vacuum for 600 ms, then loaded onto a C18 solid-phase extraction cartridge and washed for 3 s with solvent A at a flow rate of 1.5 mL/min. Retained product and internal standards were eluted with solvent B at a flow rate of 1 mL/min for 3 s and finally the cartridge was reequilibrated with solvent A for 500 ms.

T1 sequence (Q86U44 whole entry): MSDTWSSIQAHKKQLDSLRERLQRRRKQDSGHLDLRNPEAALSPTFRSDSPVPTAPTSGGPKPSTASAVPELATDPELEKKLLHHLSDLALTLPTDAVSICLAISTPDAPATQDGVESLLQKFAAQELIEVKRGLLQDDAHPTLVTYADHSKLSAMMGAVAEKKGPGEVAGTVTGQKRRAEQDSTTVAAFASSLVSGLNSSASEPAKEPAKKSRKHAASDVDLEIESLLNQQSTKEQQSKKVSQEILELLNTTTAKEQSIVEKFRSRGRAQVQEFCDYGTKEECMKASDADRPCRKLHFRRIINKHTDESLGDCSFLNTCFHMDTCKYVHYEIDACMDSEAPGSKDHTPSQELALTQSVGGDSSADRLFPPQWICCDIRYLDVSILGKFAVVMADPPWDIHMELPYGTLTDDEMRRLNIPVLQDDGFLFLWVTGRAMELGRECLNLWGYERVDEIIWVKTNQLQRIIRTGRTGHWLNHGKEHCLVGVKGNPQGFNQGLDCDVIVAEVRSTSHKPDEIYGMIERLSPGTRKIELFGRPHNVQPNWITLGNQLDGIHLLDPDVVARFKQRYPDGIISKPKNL
T1 sequence (Q9HCE5 whole entry partner): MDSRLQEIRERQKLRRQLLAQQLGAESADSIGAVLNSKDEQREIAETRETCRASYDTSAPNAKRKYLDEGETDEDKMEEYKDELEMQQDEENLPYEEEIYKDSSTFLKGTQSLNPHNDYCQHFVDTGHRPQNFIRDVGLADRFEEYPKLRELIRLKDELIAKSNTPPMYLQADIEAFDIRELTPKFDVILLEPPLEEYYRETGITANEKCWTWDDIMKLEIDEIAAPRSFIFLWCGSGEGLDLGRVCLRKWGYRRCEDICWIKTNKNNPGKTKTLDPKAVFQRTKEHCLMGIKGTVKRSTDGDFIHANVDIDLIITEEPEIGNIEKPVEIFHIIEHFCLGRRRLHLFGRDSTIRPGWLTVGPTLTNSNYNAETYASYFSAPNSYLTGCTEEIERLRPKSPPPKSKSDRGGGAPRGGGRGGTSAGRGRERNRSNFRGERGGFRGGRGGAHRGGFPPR

SMILES | IC50 [nM]
CCN(CC)Cc1ccc2nc(CNC(=O)c3cc(=O)n4ccccc4n3)cn2c1 [Compound 132, N-({6-[(diethylamino)methyl]imidazo [1,2-a]pyridin-2-yl}methyl)-4-oxo-4H-pyrido[1,2-a] pyrimidine-2-carboxamide] | 917
O=C(NCc1cn2cc(CN3CCCC3)ccc2n1)c1cc(=O)n2ccccc2n1 [Compound 133, 4-oxo-N-({6-[(pyrrolidin-1-yl)methyl]imidazo[1,2-a]pyridin-2-yl}methyl)-4H-pyrido[1,2-a] pyrimidine-2-carboxamide] | 480
O=C(NCc1cn2cc(CN3CC(c4ccccn4)C3)ccc2n1)c1cc(=O)n2ccccc2n1 [Compound 134, 4-oxo-N-[(6-{[3-(pyridin-2-yl)azetidin-1-yl]methyl}imidazo[1,2-a]pyridin-2-yl)methyl]-4H-pyrido[1,2-a] pyrimidine-2-carboxamide] | 440
O=C(NCc1cn2cc(CNC(C3CC3)C3CC3)ccc2n1)c1cc(=O)n2ccccc2n1 [Compound 135, N-[(6-{[(dicyclopropyl-methyl)amino]methyl}imidazo [1,2-a]pyridin-2-yl)methyl]-4-oxo-4H-pyrido [1,2-a]pyrimidine-2-carboxamide] | 18.3
CN(Cc1ccc2nc(CNC(=O)c3cc(=O)n4ccccc4n3)cn2c1)CC1CC1 [Compound 136, N-[(6-{[(cyclopropyl-methyl)(methyl)amino]methyl}imidazo[1,2-a]pyridin-2-yl)methyl]-4-oxo-4H-pyrido[1,2-a]pyrimidine-2-carboxamide] | 99
CC1CCN(Cc2ccc3nc(CNC(=O)c4cc(=O)n5ccccc5n4)cn3c2)CC1 [Compound 137, N-({6-[(4-methylpiperidin-1-yl)methyl]imidazo[1,2-a]pyridin-2-yl}methyl)-4-oxo-4H-pyrido[1,2-a] pyrimidine-2-carboxamide] | 17.8
O=C(NCc1cn2cc(CN3CCC(C(F)(F)F)CC3)ccc2n1)c1cc(=O)n2ccccc2n1 [Compound 138, 4-oxo-N-[(6-{[4-(trifluoromethyl)piperidin-1-yl]methyl}imidazo [1,2-a]pyridin-2-yl)methyl]-4H-pyrido[1,2-a] pyrimidine-2-carboxamide] | 31.4
CC1CCCN(Cc2ccc3nc(CNC(=O)c4cc(=O)n5ccccc5n4)cn3c2)C1 (stereo not drawn) [Compound 139, N-({6-[(3-methylpiperidin-1-yl)methyl]imidazo[1,2-a]pyridin-2-yl}methyl)-4-oxo-4H-pyrido[1,2-a]pyrimidine-2-carboxamide] | 32.6
O=C(NCc1cn2cc(CNCC3CC34CC4)ccc2n1)c1cc(=O)n2ccccc2n1 (stereo not drawn) [Compound 140] | 18.7
CC1(C)CCCN(Cc2ccc3nc(CNC(=O)c4cc(=O)n5ccccc5n4)cn3c2)C1 [Compound 141, N-({6-[(3,3-dimethylpiperidin-1-yl)methyl]imidazo[1,2-a]pyridin-2-yl}methyl)-4-oxo-4H-pyrido[1,2-a]pyrimidine-2-carboxamide] | 14.5
O=C(NCc1cn2cc(CN3CCCC(C(F)(F)F)C3)ccc2n1)c1cc(=O)n2ccccc2n1 (stereo not drawn) [Compound 142, 4-oxo-N-[(6-{[3-(trifluoromethyl)piperidin-1-yl]methyl}imidazo [1,2-a]pyridin-2-yl)methyl]-4H-pyrido[1,2-a] pyrimidine-2-carboxamide] | 48.8
CC1(C)CCC(CNCc2ccc3nc(CNC(=O)c4cc(=O)n5ccccc5n4)cn3c2)O1 (stereo not drawn) [Compound 143, N-{[6-({[(5,5-dimethyloxolan-2-yl)methyl]amino}methyl)imidazo[1,2-a]pyridin-2-yl]methyl}-4-oxo-4H-pyrido[1,2-a] pyrimidine-2-carboxamide] | 136
O=C(NCc1cn2cc(CN3CCC(F)CC3)ccc2n1)c1cc(=O)n2ccccc2n1 [Compound 144, N-({6-[(4-fluoropiperidin-1-yl)methyl]imidazo[1,2-a]pyridin-2-yl}methyl)-4-oxo-4H-pyrido[1,2-a]pyrimidine-2-carboxamide] | 59.7
CC1(NCc2ccc3nc(CNC(=O)c4cc(=O)n5ccccc5n4)cn3c2)CCCCC1 [Compound 146, N-[(6-{[(1-methylcyclohexyl)amino]methyl}imidazo[1,2-a]pyridin-2-yl)methyl]-4-oxo-4H-pyrido[1,2-a]pyrimidine-2-carboxamide] | 25.1
CC1(C)COC(CNCc2ccc3nc(CNC(=O)c4cc(=O)n5ccccc5n4)cn3c2)C1 (stereo not drawn) [Compound 147, N-{[6-({[(4,4-dimethyloxolan-2-yl)methyl]amino}methyl)imidazo[1,2-a]pyridin-2-yl]methyl}-4-oxo-4H-pyrido[1,2-a] pyrimidine-2-carboxamide] | 224
CC1(NCc2ccc3nc(CNC(=O)c4cc(=O)n5ccccc5n4)cn3c2)CCCC1 [Compound 148, N-[(6-{[(1-methylcyclopentyl)amino]methyl}imidazo[1,2-a]pyridin-2-yl)methyl]-4-oxo-4H-pyrido [1,2-a]pyrimidine-2-carboxamide] | 28.5
CCCNCc1ccc2nc(CNC(=O)c3cc(=O)n4ccccc4n3)cn2c1 [Compound 149, 4-oxo-N-({6-[(propylamino)methyl]imidazo [1,2-a]pyridin-2-yl}methyl)-4H-pyrido[1,2-a] pyrimidine-2-carboxamide] | 40.2
CC1(C)CCOC1CNCc1ccc2nc(CNC(=O)c3cc(=O)n4ccccc4n3)cn2c1 (stereo not drawn) [Compound 150, N-{[6-({[(3,3-dimethyloxolan-2-yl)methyl]amino}methyl)imidazo[1,2-a]pyridin-2-yl]methyl}-4-oxo-4H-pyrido[1,2-a] pyrimidine-2-carboxamide] | 29.9
CC(C)CNCc1ccc2nc(CNC(=O)c3cc(=O)n4ccccc4n3)cn2c1 [Compound 151, N-[(6-{[(2-methylpropyl)amino]methyl}imidazo[1,2-a]pyridin-2-yl)methyl]-4-oxo-4H-pyrido[1,2-a] pyrimidine-2-carboxamide] | 16.3
CC(C)(C)OCCNCc1ccc2nc(CNC(=O)c3cc(=O)n4ccccc4n3)cn2c1 [Compound 152, N-{[6-({[2-(tert-butoxy)ethyl]amino}methyl)imidazo[1,2-a]pyridin-2-yl]methyl}-4-oxo-4H-pyrido[1,2-a] pyrimidine-2-carboxamide] | 104
O=C(NCc1cn2cc(CNc3ccc(Cl)cc3)ccc2n1)c1cc(=O)n2ccccc2n1 [Compound 153, N-[(6-{[(4-chlorophenyl)amino]methyl}imidazo[1,2-a]pyridin-2-yl)methyl]-4-oxo-4H-pyrido[1,2-a] pyrimidine-2-carboxamide] | 1580
O=C(NCc1cn2cc(CNCCC3CCCCO3)ccc2n1)c1cc(=O)n2ccccc2n1 (stereo not drawn) [Compound 154, N-{[6-({[2-(oxan-2-yl)ethyl]amino}methyl)imidazo [1,2-a]pyridin-2-yl]methyl}-4-oxo-4H-pyrido[1,2-a] pyrimidine-2-carboxamide] | 1180
O=C(NCc1cn2cc(CN3CCC(Cc4ccccc4)CC3)ccc2n1)c1cc(=O)n2ccccc2n1 [Compound 155, N-({6-[(4-benzylpiperidin-1-yl)methyl]imidazo[1,2-a]pyridin-2-yl}methyl)-4-oxo-4H-pyrido [1,2-a]pyrimidine-2-carboxamide] | 177
O=C(NCc1cn2cc(CN3CCC(Oc4ccccc4)CC3)ccc2n1)c1cc(=O)n2ccccc2n1 [Compound 156, 4-oxo-N-({6-[(4-phenoxypiperidin-1-yl)methyl]imidazo[1,2-a]pyridin-2-yl}methyl)-4H-pyrido[1,2-a] pyrimidine-2-carboxamide] | 61.7
